Experimental data published in the NIST ThermoML archive (doi:10.1016/j.fluid.2018.01.019).
± gives the expanded uncertainty stated by the source.

Tests used:
[1] = xn = mol fraction of the nth substance listed; details: 313.15 K; 101 kPa; Liquid; Vibrating tube method; x1 = 0.333
[2] = refractive index (Na D-line) (dimensionless); xn = mol fraction of the nth substance listed; details: 313.15 K; 101 kPa; Liquid; Standard Abbe refractometry; x1 = 0.333

With `C[N+](C)(C)C.[Cl-]` [tetramethylammonium chloride] + OCCO the mass density [1] was 1072.19 ± 0.19 kg/m3 and the refractive index [2] was 1.45599 ± 0.00033.
